Assay results from PubChem BioAssay (NCI).
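All cell lines were grown in 96-well plates and treated with compound for 48 hours. TGI is the concentration that stops growth completely.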

How the values were obtained:
Experiment in all cases: NCI-60 cell line screen, 48 h
[1] = test system: 786-0 renal
[2] = test system: A498 renal
[3] = test system: A549 NSCLC
[4] = test system: ACHN renal
[5] = test system: BT-549 breast
[6] = test system: CAKI-1 renal
[7] = test system: CCRF-CEM leukemia
[8] = test system: COLO 205 colon
[9] = test system: DU-145 prostate
[10] = test system: EKVX NSCLC
[11] = test system: HCC-2998 colon
[12] = test system: HCT-116 colon
[13] = test system: HCT-15 colon
[14] = test system: HL-60(TB) leukemia
[15] = test system: HOP-62 NSCLC
[16] = test system: HOP-92 NSCLC
[17] = test system: HS 578T breast
[18] = test system: HT29 colon
[19] = test system: IGROV1 ovarian
[20] = test system: K-562 leukemia
[21] = test system: KM12 colon
[22] = test system: LOX IMVI melanoma
[23] = test system: M14 melanoma
[24] = test system: MALME-3M melanoma
[25] = test system: MCF7 breast
[26] = test system: MDA-MB-231 breast
[27] = test system: MDA-MB-435
[28] = test system: MOLT-4 leukemia
[29] = test system: NCI-H23 lung
[30] = test system: NCI-H460 lung
[31] = test system: NCI-H522 lung
[32] = test system: NCI/ADR-RES ovarian
[33] = test system: OVCAR-3 ovarian
[34] = test system: OVCAR-4 ovarian
[35] = test system: OVCAR-5 ovarian
[36] = test system: OVCAR-8 ovarian
[37] = test system: PC-3 prostate
[38] = test system: RPMI-8226 leukemia
[39] = test system: RXF 393 renal
[40] = test system: SF-268 CNS
[41] = test system: SF-295 CNS
[42] = test system: SF-539 CNS
[43] = test system: SK-MEL-2 melanoma
[44] = test system: SK-MEL-28 melanoma
[45] = test system: SK-MEL-5 melanoma
[46] = test system: SK-OV-3 ovarian
[47] = test system: SN12C renal
[48] = test system: SNB-19 CNS
[49] = test system: SW-620 colon
[50] = test system: T-47D breast
[51] = test system: TK-10 renal
[52] = test system: U251 CNS
[53] = test system: UACC-257 melanoma
[54] = test system: UACC-62 melanoma

COc1cc([C@@H]2c3cc4c(cc3[C@@H](c3c(O)cc(O)c5c3O[C@H](c3ccc(O)c(O)c3)[C@@H](O)C5)[C@H]3COC(=O)[C@H]23)OCO4)cc(OC)c1OC
TGI [1]: > 100 µM
TGI [2]: 2.95 µM
TGI [3]: > 100 µM
TGI [4]: 3.16 µM
TGI [5]: > 100 µM
TGI [6]: 3.57 µM
TGI [7]: > 100 µM
TGI [8]: 51.8 µM
TGI [9]: 3.22 µM
TGI [10]: > 100 µM
TGI [11]: 3.48 µM
TGI [12]: > 100 µM
TGI [13]: > 100 µM
TGI [14]: > 100 µM
TGI [15]: 3.76 µM
TGI [16]: > 100 µM
TGI [17]: > 100 µM
TGI [18]: 63.9 µM
TGI [19]: > 100 µM
TGI [20]: 78.5 µM
TGI [21]: 3.33 µM
TGI [22]: > 100 µM
TGI [23]: > 100 µM
TGI [24]: > 100 µM
TGI [25]: 3.11 µM
TGI [26]: 3.28 µM
TGI [27]: 3.13 µM
TGI [28]: > 100 µM
TGI [29]: > 100 µM
TGI [30]: 3.72 µM
TGI [31]: > 100 µM
TGI [32]: > 100 µM
TGI [33]: 3.22 µM
TGI [34]: 3.35 µM
TGI [35]: 69.7 µM
TGI [36]: > 100 µM
TGI [37]: 3.38 µM
TGI [38]: 59.4 µM
TGI [39]: 3.28 µM
TGI [40]: > 100 µM
TGI [41]: 3.45 µM
TGI [42]: > 100 µM
TGI [43]: 3.75 µM
TGI [44]: > 100 µM
TGI [45]: 92.7 µM
TGI [46]: 3.36 µM
TGI [47]: > 100 µM
TGI [48]: > 100 µM
TGI [49]: > 100 µM
TGI [50]: 5.16 µM
TGI [51]: 3.53 µM
TGI [52]: 3.64 µM
TGI [53]: 3.81 µM
TGI [54]: 3.13 µM
